The test system of this assay is human basal carcinoma cell line TE 354.T. Description: MTT cell proliferation assay, human basal cell carcinoma cell line TE 354.T. The format is cell-based. Particulars: for Mean OD: MTT Optical Density at 570 nm. On the procedure: The three human skin cancer cell lines were: • 1) Human Melanoma cell line (A-2058). • 2) Human Epidermoid (Squamous) Carcinoma cell line (A-431). • 3) Human Basal Cell Carcinoma cell line (TE 354.T).
The cell lines were revived from cryostorage and cultured in the presence of the test and reference samples. An MIT assay was then performed on the cultures to determine the effect of the samples on the cell viability and proliferation. The percentage standard error of the mean was assessed and extreme outliers were removed if the SEM%>15. Preliminary statistical significance was assessed with an independent Student t-test at α<0.05 (with and without outliers). The methodology was based on the procedures reported by: • Ahn, N G, Campbell J S (1993). […] Proc Natl Acad Sci. 90: 5143-5147. • Galan-Cobo, A et al (2014). Functional inhibition of aquaporin-3 with a gold-based compound induces blockage of cell proliferation. J Cellul. Physiol. 229: 1787-1801. • Roomi, M W, Kalinovsky, J et al (2013) Effect of a nutrient mixture on matrix metalloproteinase-9 dimers in various human cancer cell lines. Inter 3 Oncol. 44: 936-942. • Huang, H C, Lin, M K et al (2013). Cardenolides and bufadienolide glycosides from Kalanchoe tubiflora and evaluation of cytotoxicity. Planta Medica. 79: 1362-1369. • Tilli, C M L J, Stavast-Kooy, A J W et al (2003). The garlic-derived organosulfur component ajoene decreases basal cell carcinoma tumor size by inducing apoptosis. Arch Dermatol Res. 295: 117-123.
• 1. Human melanoma cell line (A-2058, ATCC CRL11147) was obtained from ATCC, Bethesda, Md., USA. • 2. Human squamous (epidermoid) carcinoma cell line (A-431, ATCC CRL1555) was obtained from ATCC, Bethesda, Md. USA. • 3. Human basal cell carcinoma cell line (TE 354.T, ATCC CRL7762) was obtained from ATCC, Bethesda, Md., USA. • 4. Dulbecco's Modified Eagle's Medium (DMEM) was obtained from GIBCO (12100-038). 10% Foetal Bovine Serum (FBS), 100 U/ml Penicillin and […] Streptomycin were added before use. • 5. Penicillin-streptomycin solution, stored at −20° C. consisting of 10000 units/ml penicillin and 10 mg/ml streptomycin in 0.9% NaCl was obtained from Sigma (#P-0781). • 6. Trypsin-EDTA solution consisting of 0.25% Trypsin/EDTA was obtained from Invitrogen (#15400054). • 7. Phosphate buffered saline (PBS) was prepared in-house. • 8. Hanks Balanced Salt Solution (HBSS), stored at 4° C. was obtained from GIBCO (#14185-052). • 9. Foetal Bovine Serum (FBS) stored at −20° C. was obtained from GIBCO (#10091-148). • 10. MTT Reagent, 100 mg/vial, was obtained from Sigma (M-2128) and then dissolved in PBS at 10 mg/ml and stored at −20° C. A 5 mg/ml MTT solution was prepared in PBS and stored at 4° C. as the working solution. • 11. MU lysis buffer: 10% sodium dodecyl sulphate (SDS)/45% Dimethyl Formamide was prepared by dissolving 20 g SDS in 100 ml of double-distilled water (DDW), and then adding 90 ml of Dimethyl Formamide to the solution. The pH was adjusted to 4.7 by glacial acetic acid, and DDW added up to a final volume of 200 ml. • 12. 5-Fluorouracil (5-FU) was supplied by Sigma (F-6627). Three working solutions were prepared at 19.5 μg/ml. 6.5 μg/ml and 1.95 μg/ml dissolved in 15% Ethanol/HBSS. Final concentrations were 1.95 μg/ml (15 μM), 0.65 μg/ml (5 μM) and 0.195 μg/ml (1.5 μM).
• 1. Each of the cell lines was revived from cryostorage. • 2. Following initial propagation using the media described above (Characterisation of Test System, and Medium Preparation), the cell culture was subcultured using trypsin-EDTA. The media was removed and 5ml of the trypsin-EDTA solution added and incubated at 37° C. for 5 min or until all the cells had detached. The trypsin was neutralised by the addition of an equal volume of the relevant medium and centrifugation of the suspension at 300 g (1200 rpm) for 5 min at 4° C. • 3. […]

With `O=c1[nH]cc(F)c(=O)[nH]1` [5-fluorouracil, reference compound], the “Mean OD” value (0.195 μg/ml) turned out to be 0.2548, the “Mean OD” value (0.65 μg/ml) was determined as 0.2656 and the “Mean OD” value (1.95 μg/ml) is 0.2553. In addition, at 0.195 µg/mL the inhibition (Homo sapiens, 0.195 μg/ml, 24 hr incubation, vs cells only) was 5.49%. For the setting “Homo sapiens, 0.65 μg/ml, 24 hr incubation, vs cells only”, this molecule returned an inhibition at 0.65 µg/mL of 1.49%. Under “Homo sapiens, 1.95 μg/ml, 24 hr incubation, vs cells only”, this molecule showed an inhibition at 1.95 µg/mL of 5.31%.

The values above are taken from patent publication US20170209499A1, “Propolis and Extracts Thereof for the Treatment of Skin Cancers and Improvement of Skin Health” (Manuka Health New Zealand Limited, priority 2014, published 2017).
